{"source": "patent US20170128468A1", "about": "“PHOSPHATIDYLGLYCEROL AS AN ANTI-INFLAMMATORY” (Agusta University Research Institute, Inc., priority 2015, published 2017)", "format_in_all_cases": "cell-based, mouse", "key": {"[1]": {"test_system": "HSPB4-induced inflammatory mediator expression in RAW cell line", "experiment": "qRT-PCR of inflammatory mediator mRNA in RAW 264.7 cells treated with recombinant HSPB4", "settings": "100 μg/mL DOPG with 0.1 or 1 μg/mL HSPB4; 2 h; FIGS. 7A-7D", "procedure": "(§1) Primary cultures of mouse epidermal keratinocytes were prepared from ICR strain CD-1 outbred neonatal mice 1-3 days of age as described in detail in (Bollag W B, et al., J Invest Derm 100 240-246 (1993); Griner R, et al., J Biol Chem, 274 4663-4670 (1999)). All procedures were approved by the Institutional Animal Care and Use Committee. RAW264.7 cells, a mouse macrophage-derived cell line, were kindly provided by Drs. Qing Zhong and Carlos Isales (Augusta University) and were cultured in DMEM containing 10% fetal bovine serum and 1% penicillin and streptomycin.\n(§2) Keratinocytes were treated with or without TPA or a synthetic triacylated lipoprotein (Pam3CSK4), a TLR1/TLR2 agonist, or recombinant S100A9 (R&D Systems) or HSPB4 (MyBiosoruce) as indicated, for 2 hours in the presence and absence of different concentrations of soy PG or dioleoylphosphatidylglycerol (DOPG). Cells were harvested and RNA isolated using PerfectPure RNA tissue kits (5 PRIME, Inc, Gaithersburg, Md., USA) as per the manufacturer's protocol. Following verification of RNA integrity using a Nanodrop instrument (NanoDrop Technologies, Wilmington, Del.), RNA was reverse-transcribed to cDNA with iScript cDNA synthesis kits (Bio-Rad Laboratories, Hercules, Calif., USA) and analyzed by real-time PCR using Taqman primer/probe sets from Applied Biosystems (Life Technologies, Grand Island, N.Y.). […]"}, "[2]": {"test_system": "Pam3CSK4-induced inflammatory mediator expression in macrophage cell line RAW 264.7", "experiment": "qRT-PCR of inflammatory mediator mRNA in RAW 264.7 macrophage cell line treated with Pam3CSK4", "settings": "2 h", "procedure": "as §1\nKeratinocytes were treated with or without TPA or a synthetic triacylated lipoprotein (Pam3CSK4), a TLR1/TLR2 agonist, or recombinant S100A9 (R&D Systems) or HSPB4 (MyBiosoruce) as indicated, for 2 hours in the presence and absence of different concentrations of soy PG or dioleoylphosphatidylglycerol (DOPG). Cells were harvested and RNA isolated using PerfectPure RNA tissue kits (5 PRIME, Inc, Gaithersburg, Md., USA) as per the manufacturer's protocol. Following verification of RNA integrity using a Nanodrop instrument (NanoDrop Technologies, Wilmington, Del.), RNA was reverse-transcribed to cDNA with iScript cDNA synthesis kits (Bio-Rad Laboratories, Hercules, Calif., USA) and analyzed by real-time PCR using Taqman primer/probe sets from Applied Biosystems (Life Technologies, Grand Island, N.Y.). Reactions were performed using Fast Reagent PCR Master Mix (Applied Biosystems) and a StepOnePlus Real-Time PCR System (Applied Biosystems) as instructed by the manufacturer. Expression of genes of interest was determined using the delta-delta Ct method normalized to the expression of GAPDH as the endogenous housekeeping gene and expressed relative to the appropriate control group."}, "[3]": {"test_system": "S100A9-induced inflammatory mediator expression in RAW 264.7 macrophage cell line", "experiment": "qRT-PCR of inflammatory mediator mRNA in RAW 264.7 cells treated with recombinant S100A9", "settings": "100 μg/mL DOPG with 2 μg/mL S100A9; 2 h; FIGS. 6A-6D", "procedure": "as §1, §2"}, "[4]": {"test_system": "Pam3CSK4-induced inflammatory mediator expression in keratinocytes", "experiment": "qRT-PCR of inflammatory mediator mRNA in keratinocytes treated with Pam3CSK4 (TLR1/2 agonist)", "settings": "DOPG at either 50 or 100 μg/mL; Pam3CSK4 1 or 2.5 μg/mL; 2-hour incubation; FIGS. 1A-1D", "procedure": "as §1, §2"}, "[5]": {"test_system": "NF-κB phosphorylation/activation in RAW264.7 cells", "experiment": "Western analysis of NF-κB phosphorylation/activation in RAW264.7 cells stimulated with Pam3CSK4", "settings": "co-treatment with 100 μg/mL DOPG; 2.5 μg/mL Pam3CSK4; 10 minutes; FIG. 9", "procedure": "Membranes containing transferred proteins were blocked with 5% non-fat dry milk for at least 30 minutes before incubating with the appropriate primary antibodies, overnight, followed by washing and incubating with secondary antibodies for 1 h at room temperature. Immunoreactivity was visualized using infrared imaging on an Odyssey imaging system (LI-COR Biosciences, Lincoln, Nebr.)."}, "[6]": {"test_system": "TNFα protein secretion by RAW264.7 cells", "experiment": "TNFα protein secretion by ELISA in RAW264.7 culture supernatants", "settings": "2 h", "procedure": "Cells were treated with recombinant S100A9 or recombinant HSPB4 as indicated and media collected. TNFα levels were determined in the supernatant using an ELISA kit (BD Biosciences) according to the manufacturer's instructions.\nMouse TNFα ELISA kits from BD Biosciences (San Jose, Calif.) were used. RAW264.7 cells were treated with or without recombinant S100A9 or HSPB4 in the presence and absence of DOPG for 2 hours. Cell culture supernatants were collected and stored at −80° C. and subjected to a single freeze-thaw cycle. The ELISA assay was performed according to the manufacturer's instructions with the optical density detected in each sample within 30 minutes, at a wavelength of 450 nm and corrected at 570 nm."}, "[7]": {"settings": "co-treatment with DOPG 100 μg/mL"}}}
{"smiles": "CCCCCCCC/C=C\\CCCCCCCC(=O)OC[C@H](COP(=O)(O)OCC(O)CO)OC(=O)CCCCCCC/C=C\\CCCCCCCC", "note": "(stereo partly drawn) [DOPG, dioleoylphosphatidylglycerol]", "values": [{"measurement": "HSPB4 induction of inflammatory mediator expression", "setting": "[1]", "result": "inhibited"}, {"measurement": "Pam3CSK4-induced IL1α expression", "setting": "[2]; DOPG 50 μg/mL", "result": "inhibited"}, {"measurement": "Pam3CSK4-induced IL1β expression", "setting": "[2]; DOPG 50 μg/mL", "result": "inhibited"}, {"measurement": "Pam3CSK4 induction of TNFα", "setting": "[2]; DOPG 50 or 100 μg/mL", "result": "no effect"}, {"measurement": "Pam3CSK4-induced IL1α mRNA level", "setting": "[2]; [7]", "result": "inhibition"}, {"measurement": "Pam3CSK4-induced IL1β mRNA level", "setting": "[2]; [7]", "result": "inhibition"}, {"measurement": "Pam3CSK4-induced IL6 mRNA level", "setting": "[2]; [7]", "result": "inhibition"}, {"measurement": "S100A9-induced increase in inflammatory mediator expression", "setting": "[3]", "result": "inhibit"}, {"measurement": "Pam3CSK4-induced increase in the expression of all cytokines tested (IL1α, IL1β, IL6, TNFα mRNA)", "setting": "[4]", "result": "significantly inhibited"}, {"measurement": "Pam3CSK4-increased phosphorylation/activation of NF-κB", "setting": "[5]", "result": "inhibited"}, {"measurement": "S100A9-induced increase in TNFα protein secretion", "setting": "[6]; 100 μg/mL DOPG with 2 μg/mL S100A9, FIG. 8A", "result": "inhibited"}, {"measurement": "HSPB4-induced increase in TNFα protein secretion", "setting": "[6]; 100 μg/mL DOPG with 0.1 or 1 μg/mL HSPB4, FIG. 8B", "result": "inhibited"}]}
